Results: patent US8361999B2, “Methods of treating cholesterol gallstone disease with ezetimibe” (Pontificia Universidad Catolica de Chile, priority 2005, dated 2013)
“Also recorded” adds a separate entry of the source.

What was measured:
[1] = system: cholesterol and bile salt absorption; experiment: Intestinal absorption of cholesterol and bile salts by fecal excretion of neutral and acidic sterols; type: in vivo, mouse; conditions: for Fecal excretion of bile acids / Fecal excretion of neutral sterols: pooled feces; for Fecal excretion of bile acids: days 12-14; for Fecal excretion of neutral sterols: last three days of 14
Protocol: (§1) Surgery and sample harvest. The groups were maintained for 14 days (protocol #1) or 30 days (protocol #2) in the different experimental conditions. During the last three days of the protocols, 24 h depositions were collected from the different groups (pool) to determine the fecal excretion of neutral sterols (cholesterol) and acidic sterols (bile salts). At the end of the time established in the protocols, the mice were anesthetized (between 08:00-10:00 AM) with an intraperitoneal pentobarbital injection in doses of 4.5 mg per 100 gr body weight (Amigo et al., 2000) and subjected to surgery. Standardized surgery consists in an extended […] and visualization of abdominal organs, including liver, biliary tree and gallbladder. First, we performed a resection of the gallbladder (cholecystectomy), with the cystic duct previously ligated (Amigo et al., 2002; Amigo et al., 2000; Amigo et al., 2003b). The gallbladder is removed and visually inspected to determine the presence of gallstones. Then, the gallbladder bile is extracted to analyze the presence of cholesterol crystals in the fresh samples under the microscope with polarized light (20×). Aliquots are stored at −20° C. for subsequent chemical analysis. Afterwards, the common biliary duct is cannulated (biliary fistula) with a P-10 polyethylene cannula to collect bile during 15 minutes, determine bile flow by gravimetry (1 g bile=1 ml; bile flow is expressed as μl/min/g of mouse liver) and for posterior chemical analysis of biliary lipids and glutathione, as specified later. […] Then, the liver is removed, weighted, frozen in liquid nitrogen and stored at −80 for subsequent analyses. The plasma is separated by centrifugation at 1,500 rpm and stored at −80° C. for later analysis. The animal protocols were approved by our institution Ethics Committee and the animals were treated according to international care rules for experimental animals.
(§2) Intestinal absorption of cholesterol and bile salts. The capacity of Ezetimibe to inhibit cholesterol and bile salt absorption was indirectly determined by quantification of neutral sterols (cholesterol) and acidic sterols (bile acids) present in the feces collected on day 12, 13 and 14 of the experiment (three days). In order to determine cholesterol (neutral sterols) fecal excretion, the feces were dried at 50° C. for three days and then weighted to obtain an average of fecal excretion per day (in grams). The feces were homogenized in a mortar, and 5 ml 2N NaOH:methanol, 1:1 are added per 100 mg (dry weight) aliquots of the homogenate. The sample is vortex and incubated at 60° C. for 1 h for saponification, then it is cooled and 5 ml petroleum ether is added followed by vigorous agitation to obtain the separation of the hydrophobic and hydrophilic phases. The samples are then centrifuged at 1,000 rpm for 10 minutes and the hydrophobic phase (upper layer) is recovered. Second and third extractions are performed by adding 5 ml petroleum ether to the hydrophilic phase. The hydrophobic phases are dried under gaseous nitrogen and the lipids are resuspended in 1 ml chloroform. 50 μl aliquots, in duplicate, are dried at room temperature, and total cholesterol is quantified according to the enzymatic method described above. The values obtained are expressed as μmoles cholesterol/day/100 g of mouse (Miettinen et al., 1965). In order to determine fecal excretion of bile acids the mice feces were collected during three days (days 12-14), dried at 50° C. for one week and weighted. The feces are then homogenized in a mortar; (^14C) cholic acid, 200,000 cpm is added to 1 g of the homogenate to determine the degree of recovery. The samples are then mixed with NaBr, NaOH and HCl, dissolved in ethanol and incubated at 120° C. for 8 h in a reflux system. The hydrolyzed fecal samples are resuspended in NaOH and dried under gaseous N2. The pellet obtained is resuspended in ethanol and run through Sep-Pak columns to eliminate all bile salts contaminants. […]

cholesterol absorption = conditions: relative to SCH 48461; cited from earlier work
C57BL/6J mice = experiment: Lipid content and cholesterol saturation index in gallbladder bile; type: in vivo, mouse; conditions: for Gallbladder Bile Bile salts / Gallbladder Bile Cholesterol / Gallbladder Bile Colesterol Saturation Index / Gallbladder Bile Phospholipids: 14 days
Protocol: as §1, §2

MDR2 = experiment: Hepatic expression of phospholipid transporter MDR2 (Northern blot); type: in vivo, mouse
Protocol: (§3) Expression of Specific Bile Salts (Ntcp, Bsep), Phospholipid (MDR2) and Organic Anions or Glutathione (MRP2); And Determination of Glutathione Synthesis (Gluthamylcystein-Synthetase (GGCS)).
(§4) Total RNA extraction. 80 mg hepatic tissue frozen at −70° C. was homogenized in 800 μl solution D, following the method described by Chomczynski and Sacchi, 1987. The RNA concentration was calculated by measuring the absorbance at 260 nm and its purity by the ratio OD260/OD280. The samples are stored at −20° C. RNA electrophoresis. 10 μg of total RNA are dried under gaseous N2 or vacuum for 10 minutes. 10 μl loading buffer were added, and the samples heated to 65° C., loaded into a denaturing 1% agarose/formaldehyde gel and run at 100 volts for 4 hours. The RNA integrity was determined by the clear visualization of the 28 S and 18 S ribosomal RNAs (FIG. 8).
(§5) Northern Blot and hybridization with radioactive probes. The gel with the RNA samples is washed with DEPC H2O for 10 minutes to eliminate formaldehyde and then incubated for 20 minutes with 50 mM NaOH for partial RNA hydrolysis. After a 10 minute wash with DEPC H2O to eliminate NaOH, the samples are transferred from the gel to Nylon membranes (Hybond-N, Amersham Pharmacia) over night by a capillary system. […]
(§6) Probe labeling by “de novo synthesis”. […] The percentage of incorporated radioactivity into the probe was always over 60%. […]

GGCS = experiment: Hepatic expression of gamma-gluthamylcystein-synthetase (Northern blot); type: in vivo, mouse; conditions: 14 days
Protocol: as §3, §4, §5, §6

SR-BI = experiment: Hepatic expression of SR-BI; type: in vivo, mouse; conditions: 14 days

SMILES: O=C1[C@H](CC[C@H](O)c2ccc(F)cc2)[C@@H](c2ccc(O)cc2)N1c1ccc(F)cc1 [Ezetimibe, (−)-1-(4-fluorophenyl)-(3R)-[3-(4-fluorophenyl)-(.S)-hydroxypropyl]-(4S)-(4-hydroxyphenyl)-2-azetidinone]
- Fecal excretion of bile acids ([1]; Chow + Ezetimibe): 55.42 μmol/day/100 g mouse
- Fecal excretion of neutral sterols ([1]; Chow + Ezetimibe): 19.98 μmol/day/100 g mouse
- Fecal excretion of bile acids ([1]; Lithogenic + Ezetimibe): 909.20 μmol/day/100 g mouse
- Fecal excretion of neutral sterols ([1]; Lithogenic + Ezetimibe): 165.79 μmol/day/100 g mouse
- effect on fecal excretion of bile salts ([1]; both on control and lithogenic diets): does not significantly affect
- increment of fecal excretion of neutral sterols vs control diet without Ezetimibe ([1]; control diet): 37%
- fecal excretion of neutral sterols (cholesterol) higher than in mice not treated with Ezetimibe ([1]; lithogenic diet): 55%
- inhibitory activity in cholesterol absorption higher than predecessor analog (SCH 48461) (cholesterol absorption): 400 times
- Gallbladder Bile Bile salts (C57BL/6J mice; Chow + Ezetimibe): 65.00 mmol/L
- Gallbladder Bile Cholesterol (C57BL/6J mice; Chow + Ezetimibe): 1.19 mmol/L
- Gallbladder Bile Colesterol Saturation Index (C57BL/6J mice; Chow + Ezetimibe): 51.7%
- Gallbladder Bile Phospholipids (C57BL/6J mice; Chow + Ezetimibe): 11.62 mmol/L
- Gallbladder Bile Bile salts (C57BL/6J mice; Lithogenic + Ezetimibe): 70.37 mmol/L
- Gallbladder Bile Cholesterol (C57BL/6J mice; Lithogenic + Ezetimibe): 1.35 mmol/L
- Gallbladder Bile Colesterol Saturation Index (C57BL/6J mice; Lithogenic + Ezetimibe): 53.2%
- Gallbladder Bile Phospholipids (C57BL/6J mice; Lithogenic + Ezetimibe): 12.92 mmol/L
- changes in cholesterol content, bile salts or lecitine in gallbladder bile (C57BL/6J mice; control diet): did not induce significant changes
- cholesterol saturation index, with vs without Ezetimibe (C57BL/6J mice; control diet): similar
- decrease of cholesterol content in the gallbladder bile (C57BL/6J mice; lithogenic diet): 50-60%
- reduction in the cholesterol saturation index (C57BL/6J mice; lithogenic diet): 50%
- phospholipid transporter MDR2 at the mRNA level (MDR2; lithogenic diet plus Ezetimibe vs lithogenic diet, 14 days): small but statistically significant decrease; also recorded: slight but statistically significant decrease
- mdr2 protein levels (MDR2; lithogenic diet plus Ezetimibe, data not shown): no concomitant decrease
- hepatic expression of GGCS, lithogenic diet plus Ezetimibe vs lithogenic diet (GGCS): no significant differences
- hepatic expression of SR-BI, lithogenic diet plus Ezetimibe vs lithogenic diet (SR-BI): no significant differences
